# Results: patent US12581252B2, “Substituted pyrrolo[3,4-b]pyridines as PI3K-α inhibitors” (Relay Therapeutics, Inc., priority 2020, dated 2026)
# pIC50: −log10 of the molar value.
# Target: H1047R PIK3CA enzyme (Homo sapiens, UniProt P42336, H1047R)
# Test: ADP-Glo Biochemical PIK3CA Kinase Assay
# Procedure: Compounds to be assayed were plated in 16 doses of 1:2 serial dilutions (20 nL volume each well) on a 1536-well plate, and the plate warmed to room temperature. […] To the well was added 1 μL of 200 μM ATP and 20 μM of diC8-PIP2 in Substrate Assay Buffer (50 mM HEPES pH7.4, 50 mM NaCl, 5 mM DTT and 0.03% CHAPS) to start the reaction, and the plate was shaken for 10 seconds, then spun briefly at 1500 rpm, and then incubated for 60 minutes at room temperature. The reaction was stopped by adding 2 μL of ADP-Glo reagent (Promega), and spinning briefly at 1500 rpm, and then incubating for 40 minutes. ADP-Glo Detection reagent (Promega) was added and the plate spun briefly at 1500 rpm, then incubated for 30 minutes.
# Chain of H1047R PIK3CA enzyme (P42336 whole entry H1047R): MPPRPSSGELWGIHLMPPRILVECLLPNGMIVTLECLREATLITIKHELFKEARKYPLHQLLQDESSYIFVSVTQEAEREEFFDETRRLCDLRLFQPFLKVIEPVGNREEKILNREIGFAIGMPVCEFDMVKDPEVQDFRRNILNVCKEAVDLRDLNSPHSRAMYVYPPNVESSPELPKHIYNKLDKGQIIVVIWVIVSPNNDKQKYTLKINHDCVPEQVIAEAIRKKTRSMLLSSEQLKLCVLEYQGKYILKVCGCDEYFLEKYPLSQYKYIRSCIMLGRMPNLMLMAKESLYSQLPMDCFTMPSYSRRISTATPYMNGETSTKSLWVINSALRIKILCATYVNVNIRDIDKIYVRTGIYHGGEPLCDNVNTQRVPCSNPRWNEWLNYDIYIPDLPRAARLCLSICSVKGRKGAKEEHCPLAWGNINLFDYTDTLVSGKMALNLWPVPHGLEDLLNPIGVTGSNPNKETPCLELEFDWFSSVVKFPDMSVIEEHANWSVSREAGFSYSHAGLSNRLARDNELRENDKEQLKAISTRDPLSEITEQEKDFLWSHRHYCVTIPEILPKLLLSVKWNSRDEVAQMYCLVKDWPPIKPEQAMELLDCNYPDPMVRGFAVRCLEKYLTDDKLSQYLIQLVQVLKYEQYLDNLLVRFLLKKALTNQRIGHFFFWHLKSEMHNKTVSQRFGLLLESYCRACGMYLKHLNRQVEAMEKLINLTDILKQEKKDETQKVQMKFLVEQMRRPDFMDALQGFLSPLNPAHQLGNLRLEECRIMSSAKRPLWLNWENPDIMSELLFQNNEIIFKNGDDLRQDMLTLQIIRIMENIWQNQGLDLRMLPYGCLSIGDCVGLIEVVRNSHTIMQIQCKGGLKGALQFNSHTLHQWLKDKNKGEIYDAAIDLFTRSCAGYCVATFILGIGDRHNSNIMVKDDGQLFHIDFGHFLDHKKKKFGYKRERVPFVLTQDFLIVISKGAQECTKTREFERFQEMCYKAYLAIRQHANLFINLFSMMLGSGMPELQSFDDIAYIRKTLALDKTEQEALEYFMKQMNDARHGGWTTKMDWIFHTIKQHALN
# Chain of H1047R PIK3CA enzyme (P27986 whole entry partner): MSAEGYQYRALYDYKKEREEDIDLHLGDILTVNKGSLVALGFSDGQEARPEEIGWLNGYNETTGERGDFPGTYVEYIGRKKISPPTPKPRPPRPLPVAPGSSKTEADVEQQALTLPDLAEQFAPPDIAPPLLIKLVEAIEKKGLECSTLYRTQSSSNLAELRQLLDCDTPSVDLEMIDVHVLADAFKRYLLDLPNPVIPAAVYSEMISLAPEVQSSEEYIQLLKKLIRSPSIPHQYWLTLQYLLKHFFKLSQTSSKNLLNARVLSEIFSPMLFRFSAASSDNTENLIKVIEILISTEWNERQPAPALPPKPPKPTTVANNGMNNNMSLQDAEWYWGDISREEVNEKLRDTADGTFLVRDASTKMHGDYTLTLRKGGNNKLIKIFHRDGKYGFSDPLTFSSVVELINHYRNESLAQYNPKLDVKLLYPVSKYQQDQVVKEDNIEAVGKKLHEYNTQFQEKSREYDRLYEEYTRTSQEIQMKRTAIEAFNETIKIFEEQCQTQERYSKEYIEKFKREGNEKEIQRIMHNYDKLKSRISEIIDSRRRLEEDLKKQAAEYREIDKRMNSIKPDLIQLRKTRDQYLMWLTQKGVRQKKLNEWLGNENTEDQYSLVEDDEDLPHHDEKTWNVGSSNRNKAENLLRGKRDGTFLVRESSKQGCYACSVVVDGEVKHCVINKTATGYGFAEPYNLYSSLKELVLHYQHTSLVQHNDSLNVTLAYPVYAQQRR
row,Structure (SMILES),pIC50
1,O=C(Nc1cc(-c2cc(F)c3ncnn3c2)cc2c1C(c1cc(F)ccc1Cl)NC2=O)c1cc(F)cc(C(F)(F)F)c1 (stereo not drawn) [Compound I-1653],≥ 7.00
2,Nc1nc2ccc(-c3cc(NC(=O)c4cc(F)cc(C(F)(F)F)c4)c4c(c3)C(=O)N[C@H]4c3cc(F)ccc3Cl)cn2n1 [Compound I-1445],≥ 7.00
3,O=C(Nc1cc(-c2ccc3nncn3c2)cc2c1C(c1cc(F)ccc1Cl)NC2=O)c1cc(F)cc(C(F)(F)F)c1 (stereo not drawn) [Compound I-821],≥ 7.00
4,CN(C)S(=O)(=O)c1cc(-c2ccc3ncnn3c2)cc2c1[C@@H](c1cc(F)ccc1Cl)NC2=O [Compound I-2098],4.00 to 5.00
5,N#Cc1ccc2c(c1)N(C(=O)Nc1cccc3c1C(c1cc(F)ccc1Cl)NC3=O)CC2 (stereo not drawn) [Compound I-2427],5.00 to 6.00
6,Cn1nccc1-c1cc(NC(=O)c2cc(F)cc(C(F)(F)F)c2)c2c(c1)C(=O)N[C@H]2c1cc(F)ccc1Cl [Compound I-1136],≥ 7.00
7,Cc1ccccc1[C@@H]1NC(=O)c2cccc(NC(=O)c3csc4c(F)cccc34)c21 [Compound I-37],4.00 to 5.00
8,O=C1N[C@@H](c2cc(F)ccc2Cl)c2c(N[C@H]3CCOc4ccccc43)cc(-c3cnn(C(F)F)c3)nc21 [Compound I-2082],4.00 to 5.00
9,O=C(Nc1cc(-c2ccccc2C(=O)O)cc2c1C(c1cc(F)ccc1Cl)NC2=O)c1cc(F)cc(C(F)(F)F)c1 (stereo not drawn) [Compound I-1216],6.30 to 7.00
10,CC1(C)CC1C1NC(=O)c2cccc(NC(=O)c3cc(F)cc(C(F)(F)F)c3)c21 (stereo not drawn) [Compound I-1766],5.00 to 6.00
11,"O=C1N[C@H](c2cc(F)ccc2Cl)c2c(NC(=O)N3C[C@@](O)(C(F)(F)F)c4cc(F)ccc43)cccc21 (single isomer, unassigned) [Compound I-2514]",4.00 to 5.00
12,O=C(Nc1cccc2c1C(c1cc(F)ccc1Cl)NC2=O)c1csc2c1CCNC2 (stereo not drawn) [Compound I-2304],4.00 to 5.00
13,O=C(Nc1cc(NCC(F)F)cc2c1C(c1cc(F)ccc1Cl)NC2=O)c1cc(F)cc(C(F)(F)F)c1 (stereo not drawn) [Compound I-275],≥ 7.00
14,O=C(Nc1cc(-c2ccc3nc(C(F)F)cn3c2)cc2c1[C@@H](c1cc(F)ccc1Cl)NC2=O)c1cc(F)cc(C(F)(F)F)c1 [Compound I-1928],5.00 to 6.00
15,O=C1NC(c2cc(F)ccc2Cl)c2c(NC3CNCc4ccccc43)cc(-c3ccc4ncnn4c3)cc21 (stereo not drawn) [Compound I-1959],5.00 to 6.00
16,"O=C1N[C@H](c2cc(F)ccc2Cl)c2c(NC(=O)N3C[C@@](O)(C(F)(F)F)c4cc(F)ccc43)cc(Cl)cc21 (single isomer, unassigned) [Compound I-2510]",5.00 to 6.00
17,O=C1NC(c2cc(F)ccc2Cl)c2c(NC(=O)C34CC5CC(CC(F)(C5)C3)C4)cccc21 (stereo not drawn) [Compound I-1133],6.00 to 6.30
18,CS(=O)(=O)Cc1cc(NC(=O)c2cc(F)cc(C(F)(F)F)c2)c2c(n1)C(=O)NC2c1cc(F)ccc1Cl (stereo not drawn) [Compound I-1644],≥ 7.00
19,O=C1NC(c2cc(F)ccc2Cl)c2c(NC(=O)C3CC(C(F)(F)F)CCN3)cc(Br)cc21 (stereo not drawn) [Compound I-1689],4.00 to 5.00
20,O=C(Nc1cc(-c2ccc3ncc(F)n3c2)cc2c1[C@H](c1cc(F)ccc1Cl)NC2=O)c1cc(F)cc(C(F)(F)F)c1 [Compound I-1870],≥ 7.00

row,Structure (SMILES),pIC50
1,"O=C1N[C@H](c2cc(F)ccc2Cl)c2c(NC(=O)N3C[C@](O)(C(F)(F)F)c4cc(F)ccc43)cc(-n3ccccc3=O)cc21 (single isomer, unassigned) [Compound I-2531]",5.00 to 6.00
2,CN1CCC(C2NC(=O)c3cccc(NC(=O)c4cc(F)cc(C(F)(F)F)c4)c32)CC1 (stereo not drawn) [Compound I-1815],4.00 to 5.00
3,Cc1ccccc1C1NC(=O)c2c(CCO)ccc(NC(=O)c3csc4ccccc34)c21 (stereo not drawn) [Compound I-119],≥ 7.00
4,Cn1cc(-c2cc(NC(=O)c3cc(F)cc(Cl)c3)c3c(n2)C(=O)N[C@@H]3c2cc(F)ccc2Cl)cn1 [Compound I-384],5.00 to 6.00
5,O=C1NC(c2cc(F)ccc2Cl)c2c(NC(=O)N3CCc4ccccc4CC3)cccc21 (stereo not drawn) [Compound I-2308],4.00 to 5.00
6,O=C(Nc1cc(-c2cnc3ocnc3c2)cc2c1C(c1cc(F)ccc1Cl)NC2=O)c1cc(F)cc(C(F)(F)F)c1 (stereo not drawn) [Compound I-1544],≥ 7.00
7,O=C(Nc1cc(-c2ccc3ncnn3c2)cc2c1C(c1cc(F)ccc1Cl)NC2=O)c1cc(F)cc(C(F)(F)F)c1 (stereo not drawn) [Compound I-824],≥ 7.00
8,N#CCn1ccnc1-c1cc(NC(=O)c2cc(F)cc(C(F)(F)F)c2)c2c(c1)C(=O)NC2c1cc(F)ccc1Cl (stereo not drawn) [Compound I-1454],6.30 to 7.00
9,"NCc1cc(NC(=O)N2C[C@](O)(C(F)F)c3cc(F)ccc32)c2c(c1)C(=O)N[C@H]2c1cc(F)ccc1Cl (single isomer, unassigned) [Compound I-2697]",5.00 to 6.00
10,O=C(Nc1cc(-c2cnc3ncc(Cl)n3c2)cc2c1C(c1cc(F)ccc1Cl)NC2=O)c1cc(F)cc(C(F)(F)F)c1 (stereo not drawn) [Compound I-1934],≥ 7.00
11,CC(C)(O)c1cc(NC(=O)c2coc3c(F)cc(F)cc23)c2c(c1)C(=O)NC2c1cc(F)ccc1C(F)F (stereo not drawn) [Compound I-290],≥ 7.00
12,O=C1NC(c2cc(F)ccc2Cl)c2c(NC(=O)N3CCSc4ccccc43)cccc21 (stereo not drawn) [Compound I-2284],4.00 to 5.00
13,O=C(Nc1cc(NC(=O)c2cc(F)cc(C(F)(F)F)c2)c2c(c1)C(=O)N[C@@H]2c1cc(F)ccc1Cl)c1cccnc1 (racemic) [Compound I-1478],6.30 to 7.00
14,CC1(C)CCc2scc(C(=O)Nc3cccc4c3C(c3cc(F)ccc3Cl)NC4=O)c2C1 (stereo not drawn) [Compound I-2235],5.00 to 6.00
15,Cc1ccccc1C1NC(=O)c2cccc(NC(=O)c3cc(=O)[nH]c4ccccc34)c21 (stereo not drawn) [Compound I-30],4.00 to 5.00
16,Cn1ncc(-c2cc(NC(=O)c3cc(F)cc(C(F)(F)F)c3)c3c(c2)C(=O)N[C@H]3c2cc(F)ccc2Cl)c1C#N [Compound I-1795],≥ 7.00
17,O=C(Cc1c[nH]c2ccccc12)Nc1cc(Br)cc2c1C(c1cc(F)ccc1Cl)NC2=O (stereo not drawn) [Compound I-953],4.00 to 5.00
18,O=C1NC(c2cc(F)ccc2Cl)c2c(NC(=O)n3ncc4ccccc43)cccc21 (stereo not drawn) [Compound I-2373],6.30 to 7.00
19,O=C(Nc1cc(-c2cn3ncnc3cc2F)cc2c1[C@H](c1cc(F)ccc1Cl)NC2=O)c1cc(F)cc(C(F)(F)F)c1 (stereo in doubt) [Compound I-1702],≥ 7.00
20,CN1CC[C@@H](Nc2cc(NC(=O)c3cc(F)cc(C(F)(F)F)c3)c3c(c2)C(=O)NC3c2cc(F)ccc2Cl)C1 (stereo partly drawn) [Compound I-312],≥ 7.00

row,Structure (SMILES),pIC50
1,Cn1ccc2c(C(=O)Nc3cc(Br)cc4c3C(c3cc(F)ccc3Cl)NC4=O)ccnc21 (stereo not drawn) [Compound I-636],4.00 to 5.00
2,Cc1ccccc1C1NC(=O)c2cccc(NC(=O)c3ccn4ccccc34)c21 (stereo not drawn) [Compound I-61],6.30 to 7.00
3,"C[C@@H](c1nn[nH]c1C(=O)Nc1cccc2c1[C@@H](c1cc(F)ccc1Cl)NC2=O)C(F)(F)F (single isomer, unassigned) [Compound I-2270]",4.00 to 5.00
4,Cn1cc(-c2ccc(Cl)c(C3NC(=O)c4cccc(NC(=O)c5cc(F)cc(C(F)(F)F)c5)c43)c2)cn1 (stereo not drawn) [Compound I-489],4.00 to 5.00
5,O=C(Nc1cccc2c1[C@H]([C@H]1CCCCCN1)NC2=O)c1cc(F)cc(C(F)(F)F)c1 (racemic) [Compound I-2318],4.00 to 5.00
6,O=C1NC(c2cc(F)ccc2Cl)c2c(OCc3ccccc3)cc(-c3ccc4ncnn4c3)cc21 (stereo not drawn) [Compound I-1955],4.00 to 5.00
7,CC(C)(O)Cn1cc(-c2cc(NC(=O)c3cc(F)cc(C(F)(F)F)c3)c3c(c2)C(=O)N[C@@H]3c2cc(F)ccc2Cl)cn1 [Compound I-1096],4.00 to 5.00
8,O=C(Nc1cc(-c2ccc(=O)n(C3CC3)c2)cc2c1[C@@H](c1cc(F)ccc1Cl)NC2=O)c1cc(F)cc(C(F)(F)F)c1 [Compound I-744],5.00 to 6.00
9,O=C1NC(c2cc(F)ccc2Cl)c2c1cc(-c1ccc3ncnn3c1)cc2-c1ccc2ccccc2c1 (stereo not drawn) [Compound I-1729],5.00 to 6.00
10,N#Cc1ccc2c(c1)CCCN2c1cc(NC(=O)c2cc(F)cc(C(F)(F)F)c2)c2c(c1)C(=O)NC2c1cc(F)ccc1Cl (stereo not drawn) [Compound I-1262],≥ 7.00
11,O=C(Nc1cc(-c2ccc3c(c2)OC(F)(F)O3)cc2c1C(c1cc(F)ccc1Cl)NC2=O)c1cc(F)cc(C(F)(F)F)c1 (stereo not drawn) [Compound I-738],6.30 to 7.00
12,"CC(C)[C@@]1(O)CN(C(=O)Nc2cccc3c2[C@@H](c2cc(F)ccc2Cl)NC3=O)c2ccc(F)cc21 (single isomer, unassigned) [Compound I-2454]",6.30 to 7.00
13,O=C(Nc1cccc2c1C(c1ccccc1C1CC1)NC2=O)c1cc(F)cc(C(F)(F)F)c1 (stereo not drawn) [Compound I-925],6.30 to 7.00
14,O=C(Nc1ccccc1)Nc1cc(Br)cc2c1[C@H](c1cc(F)ccc1Cl)NC2=O (stereo in doubt) [Compound I-1945],4.00 to 5.00
15,"O=C1NC[C@H](c2cc(NC(=O)c3cc(F)cc(C(F)(F)F)c3)c3c(c2)C(=O)N[C@@H]3c2cc(F)ccc2Cl)O1 (single isomer, unassigned) [Compound I-1558]",6.30 to 7.00
16,O=C(Nc1cccc2c1C1(CCc3ccccc31)NC2=O)c1cc(F)cc(C(F)(F)F)c1 (stereo not drawn) [Compound I-188],4.00 to 5.00
17,Cc1cc2cccc(C(=O)Nc3cc(Br)cc4c3C(c3cc(F)ccc3Cl)NC4=O)c2o1 (stereo not drawn) [Compound I-635],5.00 to 6.00
18,O=C(Nc1cc(-c2ccc3ocnc3n2)cc2c1C(c1cc(F)ccc1Cl)NC2=O)c1cc(F)cc(C(F)(F)F)c1 (stereo not drawn) [Compound I-1553],≥ 7.00
19,"C[S@](=O)(Cc1cc(NC(=O)c2cc(F)cc(C(F)(F)F)c2)c2c(c1)C(=O)N[C@@H]2c1cc(F)ccc1Cl)=NC#N (single isomer, unassigned) [Compound I-1563]",≥ 7.00
20,Cc1ccc(C(=O)Nc2cc(-c3ccc4ncnn4c3)cc3c2[C@@H](c2cc(F)ccc2Cl)NC3=O)cc1C(F)(F)F (stereo in doubt) [Compound I-1168],4.00 to 5.00
